Activity calls are given as the source filed them. No cut-off for these calls is given here.

The target of data set [1] is T1, Cannabinoid receptor 2 (Homo sapiens, UniProt P34972). The data set can be described thus: Positive allosteric modulator activity at human CB2R expressed in CHO-K1 cell membrane assessed as increase in [3H]CP55940 binding at 100 nM measured after 60 mins by liquid scintillation spectrometry. Type of data set: cell membranes.
Data set [2] has as its target T1, Cannabinoid receptor 2. Briefly: Positive allosteric modulator activity at human CB2R expressed in CHO-K1 cell membrane assessed as increase in [3H]CP55940 binding at 10 uM measured after 60 mins by liquid scintillation spectrometry. Type of data set: cell membranes.
For data set [3], the target named is T1, Cannabinoid receptor 2. The data set can be described thus: Positive allosteric modulator activity at human CB2R expressed in CHO-K1 cells assessed as potentiation of CP55940-stimulated beta-arrestin2 recruitment measured after 90 mins by PathHunter assay relative to control. Particulars: filed as positive allosteric modulator. Type of data set: cell-based. (Recruitment of arrestin is a read-out of receptor activation apart from second messengers.)

Data set [4] addresses T1, Cannabinoid receptor 2. The data set can be described thus: Positive allosteric modulator activity at human CB2R expressed in CHO-K1 cells assessed as potentiation of CP55940-stimulated inhibition of forskolin-induced cAMP accumulation measured after 90 mins by HitHunter cAMP assay relative to control. Type of data set: functional, cell-based. The settings on record: filed as positive allosteric modulator. (Cyclic AMP is a second messenger, typically raised through Gs and lowered through Gi signalling.)

Data set [5] concerns the target T1, Cannabinoid receptor 2. Briefly: Positive allosteric modulator activity at human CB2R expressed in CHO-K1 cells assessed as potentiation of CP55940-stimulated inhibition of forskolin-induced cAMP accumulation measured after 90 mins by HitHunter cAMP assay. Type of data set: functional, cell-based.
The target of data set [6] is T1, Cannabinoid receptor 2. Briefly: Positive allosteric modulator activity at human CB2R expressed in CHO-K1 cells assessed as potentiation of CP55940-stimulated beta-arrestin2 recruitment measured after 90 mins by PathHunter assay. Type of data set: cell-based.
In data set [7] the target is T1, Cannabinoid receptor 2. Briefly: Inverse agonist activity at human CB2R expressed in CHO-K1 cell membrane assessed as decrease in [35S]GTPgammaS binding at 1 to 10 uM measured after 90 mins by liquid scintillation counting analysis. Type of data set: cell membranes. Particulars: cho-k1, 1.5 h, dose 1-10 µM. For orientation: GTPγS resists hydrolysis and so accumulates on activated G proteins.

Data set [8] deals with T1, Cannabinoid receptor 2. Briefly: Positive allosteric modulator activity at human CB2R expressed in CHO-K1 cell membrane assessed as CP55940 Emax for [35S]GTPgammaS binding at 1 nM measured after 90 mins by liquid scintillation counting analysis (reference value: 57 +/-1.5%). Type of data set: functional, cell membranes. The settings on record: filed as positive allosteric modulator.

Data set [9] has as its target T1, Cannabinoid receptor 2. The data set can be described thus: Positive allosteric modulator activity at human CB2R expressed in CHO-K1 cell membrane assessed as CP55940 Emax for [35S]GTPgammaS binding at 100 nM measured after 90 mins by liquid scintillation counting analysis (reference value: 57 +/-1.5%). Type of data set: functional, cell membranes. The settings on record: filed as positive allosteric modulator.

The target in data set [10] is Cannabinoid receptor 1 (Homo sapiens, UniProt P21554). Briefly: Modulation of human CB1R expressed in CHO-K1 cell membrane assessed as effect on [3H]CP55940 binding at 0.001 to 10 uM measured after 60 mins by liquid scintillation spectrometry. The settings on record: cho-k1, 1 h, dose 0.001-10 µM. Type of data set: cell membranes.
Chain of Cannabinoid receptor 1 (P21554 whole entry): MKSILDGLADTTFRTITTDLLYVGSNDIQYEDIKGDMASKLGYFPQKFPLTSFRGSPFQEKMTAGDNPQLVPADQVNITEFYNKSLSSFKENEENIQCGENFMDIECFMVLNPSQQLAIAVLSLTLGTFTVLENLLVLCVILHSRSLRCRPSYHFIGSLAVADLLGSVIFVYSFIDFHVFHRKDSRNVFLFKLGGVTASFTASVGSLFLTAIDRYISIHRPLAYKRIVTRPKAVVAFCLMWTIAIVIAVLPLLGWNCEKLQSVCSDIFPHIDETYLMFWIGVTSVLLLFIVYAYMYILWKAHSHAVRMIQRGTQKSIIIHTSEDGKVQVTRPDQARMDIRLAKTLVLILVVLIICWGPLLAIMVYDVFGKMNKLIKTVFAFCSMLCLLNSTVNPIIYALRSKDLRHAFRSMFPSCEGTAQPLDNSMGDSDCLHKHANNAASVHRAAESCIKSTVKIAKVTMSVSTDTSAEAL
Data set [11] addresses T1, Cannabinoid receptor 2. Briefly: Positive allosteric modulator activity at human CB2R expressed in CHO-K1 cell membrane assessed as increase in [3H]CP55940 binding at 0.001 to 1 microM measured after 60 mins by liquid scintillation spectrometry. Type of data set: cell membranes. Particulars: dose 0.001-1 µM.
In data set [12] the target is T1, Cannabinoid receptor 2. The data set can be described thus: Inhibition of [35S]GTPgammaS binding at human CB2R expressed in CHO-K1 cell membrane at 0.001 to 10 uM measured after 90 mins by liquid scintillation counting analysis. The settings on record: cho-k1, 1.5 h, dose 0.001-10 µM. Type of data set: cell membranes.
Data set [13] addresses T1, Cannabinoid receptor 2. Briefly: Stimulation of [35S]GTPgammaS binding at human CB2R expressed in CHO-K1 cell membrane at 0.001 to 10 uM measured after 90 mins by liquid scintillation counting analysis. Type of data set: cell membranes. The settings on record: cho-k1, 1.5 h, dose 0.001-10 µM.
The mark [14] stands for this setting: filed as positive allosteric modulator.

T1 sequence (P34972 whole entry): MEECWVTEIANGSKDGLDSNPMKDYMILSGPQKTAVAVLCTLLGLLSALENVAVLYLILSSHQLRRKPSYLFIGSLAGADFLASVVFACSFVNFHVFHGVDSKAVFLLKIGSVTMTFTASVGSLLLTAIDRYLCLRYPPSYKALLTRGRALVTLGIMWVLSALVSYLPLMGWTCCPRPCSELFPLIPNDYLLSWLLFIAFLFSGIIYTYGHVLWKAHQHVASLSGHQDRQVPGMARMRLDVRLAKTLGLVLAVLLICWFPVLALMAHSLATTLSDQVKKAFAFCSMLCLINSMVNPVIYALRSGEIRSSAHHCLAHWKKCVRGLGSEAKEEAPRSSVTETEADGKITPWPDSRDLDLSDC

Consider `Cc1c(Br)cn(CCCCCO)c(=O)c1NC(=O)C1CCCCCC1`, for which the outcome in [1] was inactive.
On to `Cc1c(Br)cn(Cc2cccc(F)c2)c(=O)c1NC(=O)C1CCCCCC1`, for which the outcome in data set [1] was inactive.
Take `Cc1c(Br)cn(Cc2ccc(I)cc2)c(=O)c1NC(=O)C1CCCCCC1`: in [1], the outcome was inactive.
Still for that read-out and setting: for `Cc1c(Br)cn(Cc2ccc(F)cc2)c(=O)c1N` the value was “inactive”; for `CCCCCC(=O)Nc1c(C)c(Br)cn(Cc2ccc(F)cc2)c1=O`, “inactive”.
Same read-out and setting: next, `Cc1c(Br)cn(Cc2ccc(F)cc2)c(=O)c1NC(=O)c1ccccc1`: “inactive”.
For `Cc1c(Br)cn(Cc2ccc(Br)cc2)c(=O)c1NC(=O)C1CCCCCC1`, the outcome in [2] was inactive. The result in [1] (setting [14]) was Active.
As a reminder, the Emax is the size of the effect at its maximum, as opposed to the concentration needed. For orientation: EC50 means the concentration at which the effect is half-maximal. `Cc1c(Br)cn(Cc2ccc(F)cc2)c(=O)c1NC(=O)C1CCCCCC1`: the maximal effect (Emax) in data set [3] stood at 79%; in data set [4] it was 91%. Moreover, the EC50 was 3.8 nM in data set [5] and 17 nM in data set [6].
As for `CCCCCn1cc(Br)c(C)c(NC(=O)C2CCCCCC2)c1=O`, in data set [1], the result was inactive.
For the molecule `Cc1c(Br)cn(Cc2ccc(F)cc2)c(=O)c1NC(=O)NC1CCCCCC1`, the outcome in data set [1] was inactive.
Regarding `Cc1c(Br)cn(Cc2ccccc2F)c(=O)c1NC(=O)C1CCCCCC1`, the result in [2] was inactive. Besides, the maximal response (Emax) in data set [3] came to 51%; in data set [8] it was 51%; in data set [4] it was 120%; in data set [9] it was 72%. Also, the Activity entry in data set [7] is “Active”; in [10] it was “Not Active”; in data set [11], 20%. The EC50 in data set [5] and in data set [6] was over 10000 nM each time. Moreover, in data set [1] (setting [14]), the outcome was Active.
With `Cc1c(Br)cn(Cc2ccccc2Cl)c(=O)c1NC(=O)C1CCCCCC1`, the outcome in [2] was inactive. Moreover, the Emax was 75% in [3], 73% in data set [8], 101% in data set [4] and 67% in [9]. In addition, in data set [12], the “inhibition (INH)” value is “Not Active”. Besides, the Activity entry is “Not Active” in data set [10], “Not Active” in [13] and 40% in data set [11] (setting [14]). Further, the values for the EC50 in [5] and in [6] were 15 nM and 150 nM, respectively. The outcome in data set [1] (setting [14]) was Active.
Turning to `CC(=O)Nc1c(C)c(Br)cn(Cc2ccc(F)cc2)c1=O`, the outcome in [1] was inactive.
Consider `Cc1c(Br)cn(Cc2ccc(Cl)cc2)c(=O)c1NC(=O)C1CCCCCC1`, for which the result in data set [1] was inactive.
Still for that read-out and setting: for `Cc1c(Br)cn(Cc2ccc(F)cc2)c(=O)c1[N+](=O)[O-]` the value was “inactive”; for `Cc1c(Br)cn(Cc2ccc(F)cc2)c(=O)c1NC(=O)OC1CCCCCC1`, “inactive”; for `Cc1c(Br)cn(CCN2CCOCC2)c(=O)c1NC(=O)C1CCCCCC1`, “inactive”.
Regarding `Cc1c(Br)cn(Cc2ccc(F)cc2)c(=O)c1NC(=O)C1CCC(C)CC1` (centres undefined), the outcome in data set [1] was inactive.
On to `Cc1c(Br)cn(Cc2ccccc2)c(=O)c1NC(=O)C1CCCCCC1`, for which the result in [1] was inactive.

These data come from ChEMBL document CHEMBL4819018, “Variously substituted 2-oxopyridine derivatives: Extending the structure-activity relationships for allosteric modulation of the cannabinoid CB2 receptor” (Eur J Med Chem, 2021).
